From patent US8952024B2, “Herbicidal pyrimidone derivatives” (E I du Pont de Nemours and Company, priority 2009, dated 2015)

How the values were obtained:
Assay in all cases: Test D pre-/postemergence plant response
Type in all cases: in vivo
kochia (Kochia scoparia) = test system: kochia (Kochia scoparia)
Outline: (§1)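 Greenhouse assay: sown seeds in loam/sand received preemergence spray; simultaneously, emerged seedlings (1- to 4-leaf, 2–18 cm) got postemergence spray of the same surfactant-containing formulation. Rating at 14–21 days by visual comparison with controls, 0 = no effect to 100 = complete control.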

[1] = test system: johnsongrass (Sorghum halepense)
Outline: as §1

[2] = test system: mallow (common mallow, Malva sylvestris)
Outline: as §1

[3] = test system: sandbur (southern sandbur, Cenchrus echinatus)
Outline: as §1

[4] = test system: large crabgrass (Digitaria sanguinalis)
Outline: as §1

[5] = test system: nutsedge (purple nutsedge, Cyperus rotundus)
Outline: as §1

[6] = test system: guineagrass (Panicum maximum)
Outline: as §1

[7] = test system: goosegrass (Eleusine indica)
Outline: as §1

[8] = test system: signalgrass (broadleaf signalgrass, Brachiaria platyphylla)
Outline: as §1

[9] = test system: bermudagrass (Cynodon dactylon)
Outline: as §1

[10] = test system: dallisgrass (Paspalum dilatatum)
Outline: as §1

[11] = test system: bluegrass (annual bluegrass, Poa annua)
Outline: as §1

[12] = test system: groundsel (common groundsel, Senecio vulgaris); conditions: Postemergence
Outline: as §1

[13] = test system: morningglory (pitted morningglory, Ipomoea lacunosa)
Outline: as §1

[14] = test system: field bindweed (Convolvulus arvensis)
Outline: as §1

[15] = test system: purslane (common purslane, Portulaca oleracea)
Outline: as §1

[16] = test system: chickweed (common chickweed, Stellaria media); conditions: Postemergence
Outline: as §1

[17] = test system: quackgrass (Elytrigia repens)
Outline: as §1

[18] = Postemergence, 31 g ai/ha, scale 0 to 100
[19] = Postemergence, 62 g ai/ha, scale 0 to 100 (0 no effect, 100 complete control)
[20] = Postemergence, 125 g ai/ha, scale 0 to 100 (0 no effect, 100 complete control)
[21] = Postemergence, 16 g ai/ha, scale 0 to 100
[22] = Preemergence, 16 g ai/ha, scale 0 to 100, 0 no effect, 100 complete control
[23] = Preemergence, 31 g ai/ha, scale 0 to 100 (0 no effect, 100 complete control)
[24] = Preemergence, 62 g ai/ha, scale 0 to 100
[25] = Preemergence, 125 g ai/ha, scale 0 to 100
[26] = Postemergence, 31 g ai/ha, scale 0 to 100 (0 no effect, 100 complete control)
[27] = 62 g ai/ha, scale 0 to 100 (0 no effect, 100 complete control)

## O=C1CCCC(O)=C1C(=O)c1cnc(-c2ccccc2)n(CC2CCCO2)c1=O (centres unmarked) [Compound 59]
Kochia (Kochia scoparia); [18]
  Plant response rating, Kochia: 5
Kochia (Kochia scoparia); [19]
  Plant response rating, Kochia: 20
Kochia (Kochia scoparia); [20]
  Plant response rating, Kochia: 50
Kochia (Kochia scoparia); [21]
  Plant response rating, Kochia: 5
Kochia (Kochia scoparia); [22]
  Plant response rating, Kochia: 0
Kochia (Kochia scoparia); [23]
  Plant response rating, Kochia: 0
Kochia (Kochia scoparia); [24]
  Plant response rating, Kochia: 0
Kochia (Kochia scoparia); [25]
  Plant response rating, Kochia: 0
[1]; [18]
  Plant response rating, Johnsongrass: 35
[1]; [19]
  Plant response rating, Johnsongrass: 40
[1]; [20]
  Plant response rating, Johnsongrass: 60
[1]; [21]
  Plant response rating, Johnsongrass: 30
[1]; [22]
  Plant response rating, Johnsongrass: 0
[1]; [23]
  Plant response rating, Johnsongrass: 0
[1]; [24]
  Plant response rating, Johnsongrass: 10
[1]; [25]
  Plant response rating, Johnsongrass: 35
[2]; [18]
  Plant response rating, Mallow: 5
[2]; [19]
  Plant response rating, Mallow: 5
[2]; [20]
  Plant response rating, Mallow: 40
[2]; [21]
  Plant response rating, Mallow: 0
[2]; [22]
  Plant response rating, Mallow: 0
[2]; [23]
  Plant response rating, Mallow: 65
[2]; [24]
  Plant response rating, Mallow: 65
[2]; [25]
  Plant response rating, Mallow: 65
[3]; [18]
  Plant response rating, Sandbur: 5
[3]; [19]
  Plant response rating, Sandbur: 5
[3]; [20]
  Plant response rating, Sandbur: 25
[3]; [21]
  Plant response rating, Sandbur: 5
[3]; [22]
  Plant response rating, Sandbur: 0
[3]; [23]
  Plant response rating, Sandbur: 0
[3]; [25]
  Plant response rating, Sandbur: 0
[4]; [18]
  Plant response rating, Crabgrass, Large: 35
[4]; [19]
  Plant response rating, Crabgrass, Large: 50
[4]; [20]
  Plant response rating, Crabgrass, Large: 70
[4]; [21]
  Plant response rating, Crabgrass, Large: 35
[4]; [22]
  Plant response rating, Crabgrass, Large: 0
[4]; [23]
  Plant response rating, Crabgrass, Large: 35
[4]; [24]
  Plant response rating, Crabgrass, Large: 35
[4]; [25]
  Plant response rating, Crabgrass, Large: 65
[5]; [18]
  Plant response rating, Nutsedge, Purple: 0
[5]; [19]
  Plant response rating, Nutsedge, Purple: 20
[5]; [20]
  Plant response rating, Nutsedge, Purple: 25
[5]; [21]
  Plant response rating, Nutsedge, Purple: 0
[5]; [22]
  Plant response rating, Nutsedge, Purple: 0
[5]; [23]
  Plant response rating, Nutsedge, Purple: 20
[5]; [24]
  Plant response rating, Nutsedge, Purple: 20
[5]; [25]
  Plant response rating, Nutsedge, Purple: 80
[6]; [18]
  Plant response rating, Guineagrass: 10
[6]; [19]
  Plant response rating, Guineagrass: 20
[6]; [20]
  Plant response rating, Guineagrass: 20
[6]; [21]
  Plant response rating, Guineagrass: 10
[6]; [22]
  Plant response rating, Guineagrass: 0
[6]; [23]
  Plant response rating, Guineagrass: 0
[6]; [24]
  Plant response rating, Guineagrass: 0
[6]; [25]
  Plant response rating, Guineagrass: 0
[7]; [18]
  Plant response rating, Goosegrass: 20
[7]; [19]
  Plant response rating, Goosegrass: 50
[7]; [20]
  Plant response rating, Goosegrass: 65
[7]; [21]
  Plant response rating, Goosegrass: 20
[7]; [22]
  Plant response rating, Goosegrass: 0
[7]; [23]
  Plant response rating, Goosegrass: 5
[7]; [24]
  Plant response rating, Goosegrass: 20
[7]; [25]
  Plant response rating, Goosegrass: 80
[8]; [18]
  Plant response rating, Signalgrass: 5
[8]; [19]
  Plant response rating, Signalgrass: 10
[8]; [20]
  Plant response rating, Signalgrass: 20
[8]; [21]
  Plant response rating, Signalgrass: 5
[8]; [22]
  Plant response rating, Signalgrass: 0
[8]; [23]
  Plant response rating, Signalgrass: 0
[8]; [25]
  Plant response rating, Signalgrass: 5
[9]; [26]
  Plant response rating, Bermudagrass: 40
[9]; [19]
  Plant response rating, Bermudagrass: 70
[9]; [20]
  Plant response rating, Bermudagrass: 80
[9]; [21]
  Plant response rating, Bermudagrass: 35
[9]; [22]
  Plant response rating, Bermudagrass: 0
[9]; [23]
  Plant response rating, Bermudagrass: 0
[9]; [24]
  Plant response rating, Bermudagrass: 40
[9]; [25]
  Plant response rating, Bermudagrass: 90
[10]; [18]
  Plant response rating, Dallisgrass: 10
[10]; [19]
  Plant response rating, Dallisgrass: 20
[10]; [20]
  Plant response rating, Dallisgrass: 50
[10]; [21]
  Plant response rating, Dallisgrass: 10
[10]; [22]
  Plant response rating, Dallisgrass: 0
[10]; [23]
  Plant response rating, Dallisgrass: 0
[10]; [24]
  Plant response rating, Dallisgrass: 65
[10]; [25]
  Plant response rating, Dallisgrass: 75
[11]; [26]
  Plant response rating, Bluegrass: 0
[11]; [19]
  Plant response rating, Bluegrass: 0
[11]; [20]
  Plant response rating, Bluegrass: 5
[11]; [21]
  Plant response rating, Bluegrass: 0
[11]; [22]
  Plant response rating, Bluegrass: 0
[11]; [23]
  Plant response rating, Bluegrass: 0
[11]; [24]
  Plant response rating, Bluegrass: 15
[11]; [25]
  Plant response rating, Bluegrass: 30
[12]; 31 g ai/ha, scale 0 to 100
  Plant response rating, Groundsel: 90
[12]; [27]
  Plant response rating, Groundsel: 100
[12]; 125 g ai/ha, scale 0 to 100 (0 no effect, 100 complete control)
  Plant response rating, Groundsel: 100
[12]; 16 g ai/ha, scale 0 to 100
  Plant response rating, Groundsel: 70
[13]; [18]
  Plant response rating, Morningglory: 40
[13]; [19]
  Plant response rating, Morningglory: 50
[13]; [20]
  Plant response rating, Morningglory: 50
[13]; [21]
  Plant response rating, Morningglory: 0
[13]; [22]
  Plant response rating, Morningglory: 0
[13]; [23]
  Plant response rating, Morningglory: 0
[13]; [24]
  Plant response rating, Morningglory: 0
[13]; [25]
  Plant response rating, Morningglory: 80
[14]; [18]
  Plant response rating, Field Bindweed: 5
[14]; [19]
  Plant response rating, Field Bindweed: 30
[14]; [20]
  Plant response rating, Field Bindweed: 60
[14]; [21]
  Plant response rating, Field Bindweed: 5
[14]; [22]
  Plant response rating, Field Bindweed: 0
[14]; [23]
  Plant response rating, Field Bindweed: 0
[14]; [24]
  Plant response rating, Field Bindweed: 20
[14]; [25]
  Plant response rating, Field Bindweed: 60
[15]; [18]
  Plant response rating, Purslane: 35
[15]; [19]
  Plant response rating, Purslane: 35
[15]; [20]
  Plant response rating, Purslane: 50
[15]; [21]
  Plant response rating, Purslane: 35
[15]; [22]
  Plant response rating, Purslane: 65
[15]; [23]
  Plant response rating, Purslane: 100
[15]; [24]
  Plant response rating, Purslane: 100
[15]; [25]
  Plant response rating, Purslane: 100
[16]; 31 g ai/ha, scale 0 to 100
  Plant response rating, Chickweed: 70
[16]; [27]
  Plant response rating, Chickweed: 70
[17]; [18]
  Plant response rating, Quackgrass: 0
[17]; [19]
  Plant response rating, Quackgrass: 0
[17]; [20]
  Plant response rating, Quackgrass: 0
[17]; [21]
  Plant response rating, Quackgrass: 0
[17]; [22]
  Plant response rating, Quackgrass: 0
[17]; [23]
  Plant response rating, Quackgrass: 0
[17]; [25]
  Plant response rating, Quackgrass: 0
